Source: patent publication US9617283B2, “Bicyclic heterocycle compounds and their uses in therapy” (ASTEX THERAPEUTICS LIMITED, priority 2012, dated 2017)
Structures can show the parent of a compound that is named as a salt. Where two headings read alike, the source gives them in different places.

Columns and labels:
[1] = tested on: EVSA-T (human breast carcinoma); assay: Anti-proliferative activity, Alamar Blue assay, EVSA-T; type: cell-based
[2] = target: T1, BIR3 domain of human XIAP (residues 252-350) (Homo sapiens, UniProt P98170); assay: XIAP in vitro competitive displacement binding assay (fluorescence polarization); conditions: 1 h, percent inhibition (PI) at 0.04 μM; read-out: Xiap IC50 or PI μM
T1 construct: BIR3 domain of human XIAP (residues 252-350); His-tag (cleaved yes); made in house; host or cells: Escherichia coli

[3] = Homo sapiens, EVSA-T; read-out: EC50 in EVSA-T cell line assays
[4] = Homo sapiens; EVSA-T cell line, 72 hours, Alamar Blue; read-out: EVSA-T prolif
[5] = Homo sapiens, EVSA-T, 72 h, EVSA-T cell line, 72 hours, Alamar Blue; read-out: EVSA-T prolif

T1 sequence (P98170 252-350): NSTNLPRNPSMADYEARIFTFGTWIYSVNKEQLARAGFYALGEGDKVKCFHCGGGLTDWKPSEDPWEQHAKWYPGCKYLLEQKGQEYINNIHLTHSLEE

| EC50 [1, 3] [nM] | Structure (SMILES) | EC50 [1, 4] [nM] | further results |
| --- | --- | --- | --- |
| < 1000 | C[C@@H]1CN(CC(=O)N2CC(C)(C)c3ncc(Cc4ccc(F)cc4F)cc32)[C@@H](CN2Cc3ncccc3C2=O)CN1 [Example 62, 6-{[(2R,5R)-1-(2-{6-[(2,4-Difluorophenyl)methyl]-3,3-dimethyl-1H,2H,3H-pyrrolo[3,2-b]pyridin-1-yl}-2-oxoethyl)-5-methylpiperazin-2-yl]methyl}-5H,6H,7H-pyrrolo[3,4-b]pyridin-5-one] |  |  |
| < 1000 | C[C@@H]1CN(CC(=O)N2CC(C)(C)c3cnc(Cc4ccc(F)cc4F)cc32)[C@@H](CN2Cc3ncccc3C2=O)CN1 [Example 63, 6-{[(2R,5R)-1-(2-{6-[(2,4-Difluorophenyl)methyl]-3,3-dimethyl-1H,2H,3H-pyrrolo[3,2-c]pyridin-1-yl}-2-oxoethyl)-5-methylpiperazin-2-yl]methyl}-5H,6H,7H-pyrrolo[3,4-b]pyridin-5-one] |  |  |
| < 1000 | C[C@@H]1CN(CC(=O)N2CC(C)(C)c3nnc(Cc4ccc(F)cc4F)cc32)[C@@H](CN2Cc3ncccc3C2=O)CN1 [Example 64, 6-{[(2R,5R)-1-(2-{3-[(2,4-Difluorophenyl)methyl]-7,7-dimethyl-5H,6H,7H-pyrrolo[3,2-c]pyridazin-5-yl}-2-oxoethyl)-5-methylpiperazin-2-yl]methyl}-5H,6H,7H-pyrrolo[3,4-b]pyridin-5-one] |  |  |
| < 1000 | C[C@@H]1CN(CC(=O)N2CC(C)(C)c3nnc(Cc4ccc(F)cc4)cc32)[C@@H](CN2Cc3ncccc3C2=O)CN1 [Example 65, 6-{[(2R,5R)-1-(2-{3-[(4-Fluorophenyl)methyl]-7,7-dimethyl-5H,6H,7H-pyrrolo[3,2-c]pyridazin-5-yl}-2-oxoethyl)-5-methylpiperazin-2-yl]methyl}-5H,6H,7H-pyrrolo[3,4-b]pyridin-5-one] |  |  |
| < 1000 | CCCC(F)(F)c1cnc2c(c1)N(C(=O)CN1C[C@@H](C)NC[C@@H]1CN1Cc3ncccc3C1=O)CC2(C)C [Example 66, 6-{[(2R,5R)-1-{2-[6-(1,1-Difluorobutyl)-3,3-dimethyl-1H,2H,3H-pyrrolo[3,2-b]pyridin-1-yl]-2-oxoethyl}-5-methylpiperazin-2-yl]methyl}-5H,6H,7H-pyrrolo[3,4-b]pyridin-5-one] |  |  |
| < 1000 | CCCC(F)(F)c1cc2c(nn1)C(C)(C)CN2C(=O)CN1C[C@@H](C)NC[C@@H]1CN1Cc2ncccc2C1=O [Example 67, 6-{[(2R,5R)-1-{2-[3-(1,1-Difluorobutyl)-7,7-dimethyl-5H,6H,7H-pyrrolo[3,2-c]pyridazin-5-yl]-2-oxoethyl}-5-methylpiperazin-2-yl]methyl}-5H,6H,7H-pyrrolo[3,4-b]pyridin-5-one] |  |  |
|  | C[C@@H]1CN(CC(=O)N2CC(C)(C)c3ncc(Cc4ccc(F)cc4F)cc32)[C@@H](CN2Cc3ccccc3C2=O)CN1 [Example 76, 2-{[(2R,5R)-1-(2-{6-[(2,4-Difluorophenyl)methyl]-3,3-dimethyl-1H,2H,3H-pyrrolo[3,2-b]pyridin-1-yl}-2-oxoethyl)-5-methylpiperazin-2-yl]methyl}-2,3-dihydro-1H-isoindol-1-one dihydrochloride] | 2.5 |  |
|  | C[C@@H]1CN(CC(=O)N2CC(C)(C)c3nnc(Cc4ccc(F)cc4F)cc32)[C@@H](CN2Cc3ccccc3C2=O)CN1 [Example 79, 2-{[(2R,5R)-1-(2-{3-[(2,4-Difluorophenyl)methyl]-7,7-dimethyl-5H,6H,7H-pyrrolo[3,2-c]pyridazin-5-yl}-2-oxoethyl)-5-methylpiperazin-2-yl]methyl}-2,3-dihydro-1H-isoindol-1-one dihydrochloride] | 0.2 | EC50 ([1]; Homo sapiens, EVSA-T, read-out: EC50 in EVSA-T cell line assays): < 1000 nM |
|  | C[C@@H]1CN(CC(=O)N2CC(C)(C)c3nnc(Cc4ccc(F)cc4F)cc32)[C@@H](CN2Cc3ccc(F)cc3C2=O)CN1 [Example 93, 2-{[(2R,5R)-1-(2-{3-[(2,4-Difluorophenyl)methyl]-7,7-dimethyl-5H,6H,7H-pyrrolo[3,2-c]pyridazin-5-yl}-2-oxoethyl)-5-methylpiperazin-2-yl]methyl}-6-fluoro-2,3-dihydro-1H-isoindol-1-one dihydrochloride] | 0.5 |  |
|  | COc1ccc2c(c1)CN(C[C@H]1CN[C@H](C)CN1CC(=O)N1CC(C)(C)c3ncc(Cc4ccc(F)cc4)cc31)C2=O [Example 94, 2-{[(2R,5R)-1-(2-{6-[(4-Fluorophenyl)methyl]-3,3-dimethyl-1H,2H,3H-pyrrolo[3,2-b]pyridin-1-yl}-2-oxoethyl)-5-methylpiperazin-2-yl]methyl}-5-methoxy-2,3-dihydro-1H-isoindol-1-one dihydrochloride] | 4.8 |  |
|  | C[C@@H]1CN(CC(=O)N2CC(C)(C)c3ncc(Cc4ccc(F)cc4)cc32)[C@@H](CN2Cc3cccnc3C2=O)CN1 [Example 95, 6-{[(2R,5R)-1-(2-{6-[(4-Fluorophenyl)methyl]-3,3-dimethyl-1H,2H,3H-pyrrolo[3,2-b]pyridin-1-yl}-2-oxoethyl)-5-methylpiperazin-2-yl]methyl}-5H,6H,7H-pyrrolo[3,4-b]pyridin-7-one dihydrochloride] | 0.71 |  |
| < 1000 | C[C@@H]1CN(CC(=O)N2CC(C)(C)c3ncc(Cc4ccc(F)cc4)cc32)[C@@H](CN2CC(C)(C)OCC2=O)CN1 [Example 97, 4-{[(2R,5R)-1-(2-{6-[(4-Fluorophenyl)methyl]-3,3-dimethyl-1H,2H,3H-pyrrolo[3,2-b]pyridin-1-yl}-2-oxoethyl)-5-methylpiperazin-2-yl]methyl}-6,6-dimethylmopholin-3-one dihydrochloride] |  | EC50 [1, 5]: 9 nM |
| < 1000 | COC[C@@H]1CN(C[C@H]2CN[C@H](C)CN2CC(=O)N2CC(C)(C)c3nnc(Cc4ccc(F)cc4F)cc32)C(=O)CO1 [Example 101, (6S)-4-{[(2R,5R)-1-(2-{3-[(2,4-Difluorophenyl)methyl]-7,7-dimethyl-5H,6H,7H-pyrrolo[3,2-c]pyridazin-5-yl}-2-oxoethyl)-5-methylpiperazin-2-yl]methyl}-6-(methoxymethyl)morpholin-3-one dihydrochloride] |  | EC50 [1, 5]: 25 nM |
|  | C[C@@H]1CN(CC(=O)N2CC(C)(C)c3nnc(Cc4ccc(F)cc4F)cc32)[C@@H](CN2Cc3cc(F)ccc3C2=O)CN1 [Example 103, 2-{[(2R,5R)-1-(2-{3-[(2,4-Difluorophenyl)methyl]-7,7-dimethyl-5H,6H,7H-pyrrolo[3,2-c]pyridazin-5-yl}-2-oxoethyl)-5-methylpiperazin-2-yl]methyl}-5-fluoro-2,3-dihydro-1H-isoindol-1-one dihydrochloride] | 0.18 |  |
|  | C[C@@H]1CN(CC(=O)N2CC(C)(C)c3nnc(Cc4ccc(F)cc4F)cc32)[C@@H](CN2Cc3c(F)cccc3C2=O)CN1 [Example 104, 2-{[(2R,5R)-1-(2-{3-[(2,4-Difluorophenyl)methyl]-7,7-dimethyl-5H,6H,7H-pyrrolo[3,2-c]pyridazin-5-yl}-2-oxoethyl)-5-methylpiperazin-2-yl]methyl}-4-fluoro-2,3-dihydro-1H-isoindol-1-one dihydrochloride] | 0.12 |  |
|  | C[C@@H]1CN(CC(=O)N2CC(C)(C)c3nnc(Cc4ccc(F)cc4F)cc32)[C@@H](CN2Cc3cc(C#N)ccc3C2=O)CN1 [Example 109, 2-{[(2R,5R)-1-(2-{3-[(2,4-Difluorophenyl)methyl]-7,7-dimethyl-5H,6H,7H-pyrrolo[3,2-c]pyridazin-5-yl}-2-oxoethyl)-5-methylpiperazin-2-yl]methyl}-1-oxo-2,3-dihydro-1H-isoindole-5-carbonitrile dihydrochloride] | 0.64 |  |
|  | C[C@@H]1CN(CC(=O)N2CC(C)(C)c3nnc(Cc4ccc(F)cc4F)cc32)[C@@H](CN2Cc3ccc(C#N)cc3C2=O)CN1 [Example 114, 2-{[(2R,5R)-1-(2-{3-[(2,4-Difluorophenyl)methyl]-7,7-dimethyl-5H,6H,7H-pyrrolo[3,2-c]pyridazin-5-yl}-2-oxoethyl)-5-methylpiperazin-2-yl]methyl}-3-oxo-2,3-dihydro-1H-isoindole-5-carbonitrile dihydrochloride] | 1.4 |  |
|  | C[C@@H]1CN(CC(=O)N2CC(C)(C)c3nnc(Cc4ccc(F)cc4F)cc32)[C@@H](CN2Cc3ccc(O)cc3C2=O)CN1 [Example 115, 2-{[(2R,5R)-1-(2-{3-[(2,4-Difluorophenyl)methyl]-7,7-dimethyl-5H,6H,7H-pyrrolo[3,2-c]pyridazin-5-yl}-2-oxoethyl)-5-methylpiperazin-2-yl]methyl}-6-hydroxy-2,3-dihydro-1H-isoindol-1-one dihydrochloride] |  | inhibition at 0.04 µM [2]: 78% |
|  | C[C@@H]1CN(CC(=O)N2CC(C)(C)c3ncc(Cc4ccc(F)cc4F)cc32)[C@@H](CN2Cc3ccc(O)cc3C2=O)CN1 [Example 116, 2-{[(2R,5R)-1-(2-{6-[(2,4-Difluorophenyl)methyl]-3,3-dimethyl-1H,2H,3H-pyrrolo[3,2-b]pyridin-1-yl}-2-oxoethyl)-5-methylpiperazin-2-yl]methyl}-6-hydroxy-2,3-dihydro-1H-isoindol-1-one dihydrochloride] |  | inhibition at 0.04 µM [2]: 79% |
|  | C[C@@H]1CN(CC(=O)N2CC(C)(C)c3nnc(Cc4ccc(F)cc4F)cc32)[C@@H](CN2Cc3c(O)cccc3C2=O)CN1 [Example 117, 2-{[(2R,5R)-1-(2-{3-[(2,4-Difluorophenyl)methyl]-7,7-dimethyl-5H,6H,7H-pyrrolo[3,2-c]pyridazin-5-yl}-2-oxoethyl)-5-methylpiperazin-2-yl]methyl}-4-hydroxy-2,3-dihydro-1H-isoindol-1-one dihydrochloride] |  | inhibition at 0.04 µM [2]: 78% |
| < 1000 | C[C@@H]1CN(CC(=O)N2CC(C)(C)c3nnc(Cc4ccc(F)cc4F)cc32)[C@@H](CN2Cc3c(C#N)cccc3C2=O)CN1 [Example 119, 2-{[(2R,5R)-1-(2-{3-[(2,4-Difluorophenyl)methyl]-7,7-dimethyl-5H,6H,7H-pyrrolo[3,2-c]pyridazin-5-yl}-2-oxoethyl)-5-methylpiperazin-2-yl]methyl}-1-oxo-2,3-dihydro-1H-isoindole-4-carbonitrile dihydrochloride] |  | EC50 [1, 5]: 7.5 nM |
